Source: ChEMBL document CHEMBL5338731, “Development of Neuropeptide Hemokinin-1 Analogues with Antimicrobial and Wound-Healing Activity” (J Med Chem, 2023)
Values after ≈ are worked out from the molar mass of the structure shown. Active and inactive are the calls of the source. The rule behind the calls is not given here.

Key:
Bacillus subtilis = experiment: Antimicrobial activity against Bacillus subtilis ATCC 23857 assessed as inhibition of bacterial growth incubated for 18 hrs by serial dilution method; format: functional
Staphylococcus aureus [1] = experiment: Antimicrobial activity against Staphylococcus aureus ATCC 25923 assessed as inhibition of bacterial growth incubated for 18 hrs by serial dilution method; format: functional
Escherichia coli [2] = experiment: Antimicrobial activity against Escherichia coli ATCC 25922 assessed as inhibition of bacterial growth incubated for 18 hrs by serial dilution method; format: functional
RAW264.7 [3] = experiment: Cytotoxicity against mouse RAW264.7 cells assessed as reduction in cell viability at 1 to 16 uM incubated for 24 hrs by MTT assay; format: toxicity, cell-based; settings: raw264.7, 24 h, dose 1-16 µM
Staphylococcus aureus [4] = experiment: Antimicrobial activity against Staphylococcus aureus ATCC 29213 assessed as inhibition of bacterial growth incubated for 18 hrs by serial dilution method; format: functional
NIH3T3 [5] = experiment: Induction of cell proliferation in mouse NIH3T3 cells assessed as increase in cell viability at 0.1 to 1000 nM incubated for 48 hrs by MTT assay; format: functional, cell-based; settings: dose 0.1-1000 nM
[6] = Hemolytic activity in mouse erythrocytes assessed as haemoglobin release at 400 uM incubated for 1 hrs by microplate reader method; format: toxicity, cell-based, Erythrocyte; settings: read-out: Activity
Pseudomonas aeruginosa [7] = experiment: Antimicrobial activity against Pseudomonas aeruginosa PAO1 assessed as inhibition of bacterial growth incubated for 18 hrs by serial dilution method; format: functional
Escherichia coli [8] = experiment: Antimicrobial activity against Escherichia coli ML-35 assessed as inhibition of bacterial growth incubated for 18 hrs by serial dilution method; format: functional
NIH3T3 [9] = experiment: Induction of cell migration in mouse NIH3T3 cells assessed as […] at 0.1 to 1000 nM incubated for 48 hrs by phase-contrast microscopy based scratch wound healing assay; format: functional; settings: dose 0.1-1000 nM
HEK293 [10] = experiment: Induction of cell proliferation in human HEK293 cells assessed as increase in cell viability at 0.1 to 1000 nM incubated for 48 hrs by MTT assay; format: functional, cell-based; settings: dose 0.1-1000 nM
Mus musculus [11] = species on record: Mus musculus; experiment: Wound healing activity in Kunming mouse full-thickness excisional wound model assessed as increase in wound closure at 1 10^-7M, TOP BID and measured upto 8 days by image analysis; format: functional, organism-based; settings: time <= 8.0 day
HEK293 [12] = experiment: Induction of cell proliferation in human HEK293 cells expressing NK1R assessed as increase in cell viability at 0.1 to 1000 nM incubated for 48 hrs by MTT assay; format: functional, cell-based; settings: dose 0.1-1000 nM
Pseudomonas aeruginosa [13] = experiment: Antimicrobial activity against Pseudomonas aeruginosa ATCC 27853 assessed as inhibition of bacterial growth incubated for 18 hrs by serial dilution method; format: functional
RAW264.7 [14] = experiment: Anti-inflammatory activity in LPS-stimulated mouse RAW264.7 cells assessed as inhibition of NO production at 16 uM incubated for 24 hrs by Griess reagent based assay; format: functional, cell-based
Staphylococcus aureus [15] = experiment: Bactericidal activity against Staphylococcus aureus ATCC 25923 assessed as reduction in colony forming unit at 2 times MIC and measured after 120 mins by time-kill kinetics assay; format: functional, organism-based
Mus musculus [16] = species on record: Mus musculus; experiment: Antimicrobial activity in Staphylococcus aureus ATCC 25923 infected Kunming mouse excisional wound model assessed as decrease in bacterial growth at 1 10^-4M, TOP BID and measured upto 8 days by image analysis; format: functional, organism-based; settings: time <= 8.0 day
Mus musculus [17] = species on record: Mus musculus; experiment: Wound healing activity in Staphylococcus aureus ATCC 25923 infected Kunming mouse excisional wound model assessed as increase in wound repair at 1 10^-4M, TOP BID and measured upto 8 days by image analysis; format: functional, organism-based; settings: time <= 8.0 day
[18] = Cytotoxicity against mouse RAW264.7 cells assessed as cell survival rate at 16 uM incubated for 24 hrs by MTT assay; format: toxicity, cell-based; settings: read-out: Survival
RAW264.7 [19] = experiment: Anti-inflammatory activity against LPS-stimulated mouse RAW264.7 cells assessed as reduction in IL-6 mRNA expression level at 1 to 16 uM incubated for 4 hrs by RT-qPCR analysis; format: functional, cell-based; settings: dose 1-16 µM
RAW264.7 [20] = experiment: Anti-inflammatory activity against LPS-stimulated mouse RAW264.7 cells assessed as reduction in IL-1beta mRNA expression level at 1 to 16 uM incubated for 4 hrs by RT-qPCR analysis; format: functional, cell-based; settings: dose 1-16 µM
Lipopolysaccharide (LPS) = experiment: Binding affinity to Escherichia coli O111:B4 LPS assessed as dissociation constant by ITC assay
RAW264.7 [21] = experiment: Anti-inflammatory activity against LPS-stimulated mouse RAW264.7 cells assessed as reduction in TNF-alpha mRNA expression level at 1 to 16 uM incubated for 4 hrs by RT-qPCR analysis; format: functional, cell-based; settings: dose 1-16 µM
Mus musculus [22] = species on record: Mus musculus; experiment: Wound healing activity in Kunming mouse full-thickness excisional wound model with splints assessed as increase in wound healing rate at 1 10^-7M, TOP BID and measured upto 8 days by image analysis; format: functional, organism-based; settings: time <= 8.0 day

| Compound | MIC (Bacillus subtilis) | MIC (Staphylococcus aureus [1]) | MIC (Escherichia coli [2]) | MIC (Staphylococcus aureus [4]) | Activity (NIH3T3 [5]) | hemolysis at 1 h, 400 µM [6] | MIC (Pseudomonas aeruginosa [7]) | MIC (Escherichia coli [8]) | Activity (NIH3T3 [9]) | Activity (HEK293 [10]) | Activity (Mus musculus [11]) | Activity (HEK293 [12]) | MIC (Pseudomonas aeruginosa [13]) | inhibition (RAW264.7 [14]) | viability at 24 h, 16 µM [18] | other results |
| --- | --- | --- | --- | --- | --- | --- | --- | --- | --- | --- | --- | --- | --- | --- | --- | --- |
| CSCC[C@H](NC(=O)[C@H](CC(C)C)NC(=O)CNC(=O)[C@H](Cc1ccccc1)NC(=O)[C@H](Cc1ccccc1)NC(=O)[C@H](CCC(N)=O)NC(=O)[C@H](CO)NC(=O)[C@H](C)NC(=O)[C@H](CCCCN)NC(=O)CNC(=O)[C@@H](N)[C@H](C)O)C(N)=O | > 128 µM | > 128 µM | > 128 µM | > 128 µM | Active | 5.05% | > 128 µM | > 128 µM | Active | inactive | Active | Active | > 128 µM | inactive | – | Activity (RAW264.7 [3]): Non-Toxic |
| CC1(C)S[C@@H]2[C@H](NC(=O)[C@H](N)c3ccc(O)cc3)C(=O)N2[C@H]1C(=O)O [AMOXICILLIN] | 8 µM (≈ 2.92 µg/mL) | < 1 µM | 4 µM (≈ 1.46 µg/mL) | 2 µM (≈ 0.731 µg/mL) | – | – | > 128 µM | 16 µM (≈ 5.85 µg/mL) | – | – | – | – | > 128 µM | – | – | – |
| CN[C@H](CC(C)C)C(=O)N[C@H]1C(=O)N[C@@H](CC(N)=O)C(=O)N[C@H]2C(=O)N[C@H]3C(=O)N[C@H](C(=O)N[C@H](C(=O)O)c4cc(O)cc(O)c4-c4cc3ccc4O)[C@H](O)c3ccc(c(Cl)c3)Oc3cc2cc(c3O[C@@H]2O[C@H](CO)[C@@H](O)[C@H](O)[C@H]2O[C@H]2C[C@](C)(N)[C@H](O)[C@H](C)O2)Oc2ccc(cc2Cl)[C@H]1O [VANCOMYCIN] | < 1 µM | < 1 µM | 64 µM (≈ 92.8 µg/mL) | < 1 µM | – | – | > 128 µM | 64 µM (≈ 92.8 µg/mL) | – | – | – | – | > 128 µM | – | – | Activity (Staphylococcus aureus [15]): inactive; Activity (Mus musculus [16]): Active; Activity (Mus musculus [17]): Active |
| H-LKKWLKKWTGKASQFFGLM-NH2 | 2 µM | 4 µM | 2 µM | 8 µM | Active | 7.88% | 4 µM | 2 µM | Active | inactive | Active | Active | 4 µM | Active | > 90% | Activity (RAW264.7 [19]): Dose-Dependent Effect; Activity (RAW264.7 [20]): Dose-Dependent Effect; Kd (Lipopolysaccharide (LPS)): 25 µM; Activity (RAW264.7 [21]): Dose-Dependent Effect; Activity (Mus musculus [22]): Active |
| H-LKKWLKKWTPKASQFFGLM-NH2 | 2 µM | 32 µM | 2 µM | 32 µM | Active | 2.94% | 4 µM | 2 µM | Active | inactive | Active | Active | 2 µM | Active | > 90% | Activity (RAW264.7 [19]): Dose-Dependent Effect; Activity (RAW264.7 [20]): Dose-Dependent Effect; Kd (Lipopolysaccharide (LPS)): 311 µM; Activity (RAW264.7 [21]): Dose-Dependent Effect; Activity (Mus musculus [22]): Active |
| H-LKKWTGKASQFFGLM-NH2 | 64 µM | > 128 µM | 64 µM | > 128 µM | – | 1.01% | 128 µM | 64 µM | – | – | Active | – | 128 µM | inactive | – | Activity (RAW264.7 [3]): Non-Toxic |
| H-LKKWTLKASQFFGLM-NH2 | 16 µM | > 128 µM | 16 µM | 128 µM | – | 11.2% | 64 µM | 16 µM | – | – | Active | – | 64 µM | Active | > 90% | – |
